Data on four compounds can be found in publication PMC9935901, “B-lymphoid tyrosine kinase-mediated FAM83A phosphorylation elevates pancreatic tumorigenesis through interacting with β-catenin” (Signal Transduction and Targeted Therapy, 2023).

The test system of assay [1] is BLK (FAM83A tyrosine phosphorylation). Briefly: BLK-mediated FAM83A tyrosine phosphorylation in HEK293T cells. In kind it is cell-based. To be noted: 10 μM; HEK293T with or without BLK overexpression; n = 3. The source says: Cell lysates were used for IP and western blotting with the indicated antibodies (n = 3). f Level of total tyrosine phosphorylation of Flag-tagged FAM83A and its Y138A mutant in HEK293T cells after BLK kinase knockdown using two specific small interfering RNAs (siBLK#1 and siBLK#2). Cell lysates were used for IP and western blotting with the indicated antibodies (n = 3). g, h Level of total tyrosine phosphorylation of Flag-tagged FAM83A and its Y138A mutant in HEK293T cells with or without BLK kinase overexpression and saracatinib (BLK inhibitor, 10 μM)/PP2 (LCK or FYN inhibitor, 10 μM) treatment. Cell lysates were used for IP and western blotting with the indicated antibodies (n = 3). i The BLK kinases was obtained from the immunoprecipitate of HEK293T cell lysates that transfected with either HA-tagged BLK wild-type, BLK kinase-dead mutant (Y389A) or BLK constitutive activated mutant with the deletion of the C-terminal auto-inhibitory domain (BLK ΔC) using HA tag antibody. Then the BLK kinases were incubated with the in vitro purified GST-tagged FAM83A protein at 30 °C for 30 min with or without BLK inhibitor saracatinib, and then the reaction products were subjected to western blotting assay (n = 3)
Immunoprecipitation and Western blotting were performed as described previously.[35] GAPDH protein levels were used as loading controls. […]

Assay [2] has as its system pancreatic cancer stem cells (PaCSCs), primary PDAC cultures. To be noted: primary PDAC cultures from patient-derived xenografts; ref not given; cited from earlier work. The source says: Intricate communication between pancreatic cancer cells and their surrounding environment is driven by a dynamic signaling network of cellular and matrix remodeling enzymes, cytokines, chemokines, and growth factors, which collectively promote tumor growth and treatment resistance. The non-receptor SRC kinase family signaling network is increasingly recognized as a key player in pancreatic tumorigenesis.[38],[39] Treatment of primary PDAC cultures established from patient-derived xenografts with dasatinib or PP2 reduced the clonogenic, self-renewal, and tumor-initiating capacity of pancreatic ...
A general note: Xenograft models place foreign cells or tissue in a host animal.

For assay [3], the system named is PANC-1 xenograft tumor (FAM83A re-expression). Kind of assay: Mouse xenograft of FAM83A re-expressing PANC-1 cells, Wnt inhibitor. In kind it is in vivo, nude mice (human PANC-1 cells). To be noted: 20 mg/kg intravenous (Fig. 6 legend) or 50 mg/kg intraperitoneal twice a week (methods); n = 6 or 5.
Method: The Wnt inhibitor XAV939 (20 mg/kg) was intravenously injected into the caudal vein of the nude mice one week later after xenograft formation. c Growth curve showing the changes in the tumor volume in mice in different groups from the injection (n = 6 or 5). d Weight of the excised tumors in each group (n = 6 or 5). e, f Representative images of lung and colon metastasis of the nude mice model that tail intravenous injected with PANC-1 cells stably expressed Flag-tagged wild-type FA[MUT], [MUT], or [MUT] mutants were shown. g The number of lung or colon metastasis was quantified per field (n = 5). h, i Representative images and quantification of the soft agarose and plate colony formation assays of PANC-1 cells stably expressed Flag-tagged wild-type FA[MUT], [MUT], or [MUT] mutants (n = 3). j, k Representative images and quantification of the transwell assays without matrigel of PANC-1 cells stably expressed Flag-tagged wild-type FA[MUT], [MUT] or [MUT] mutants (n = 3). l Representative H&E staining images and immunohistochemical images of Ki67, C-myc, and AXIN2 expression in excised tumors tissues. *P < 0.05; **P < 0.01; ***P < 0.001. […] The length and width of the mouse xenograft tumors were measured every 5 days with calipers, and tumor volume (V) was calculated with the following formula: V = [(length × width × width)/2]. […]

`CN1CCN(CCOc2cc(OC3CCOCC3)c3c(Nc4c(Cl)ccc5c4OCO5)ncnc3c2)CC1` [saracatinib]: the FAM83A tyrosine phosphorylation result in assay [1] is on record as “could be reduced by the BLK kinase inhibitor saracatinib”.

Regarding `CC(C)(C)n1nc(-c2ccc(Cl)cc2)c2c(N)ncnc21` [PP2], the “clonogenic, self-renewal, and tumor-initiating capacity of PaCSCs” value in assay [2] is “reduced the clonogenic, self-renewal, and tumor-initiating capacity of pancreatic cancer stem cells”. Besides, the FAM83A tyrosine phosphorylation result in assay [1] is “not LYN kinase inhibitor PP2”.

For the compound `Oc1nc(-c2ccc(C(F)(F)F)cc2)nc2c1CSCC2` [XAV939], the xenograft tumor size result in assay [3] is recorded as “inhibits the xenograft tumor size mediated by FAM83A re-expression”.

Regarding `Cc1nc(Nc2ncc(C(=O)Nc3c(C)cccc3Cl)s2)cc(N2CCN(CCO)CC2)n1` [dasatinib], the “clonogenic, self-renewal, and tumor-initiating capacity of PaCSCs” value in assay [2] was “reduced the clonogenic, self-renewal, and tumor-initiating capacity of pancreatic cancer stem cells”.
